From US4165384A, “Amide substituted phenoxy propanol amines” (priority 1974, dated 1979) come the findings set out here.

Usually ED50 stands for the midpoint of the dose-response relation.

Where two headings read alike, the source gives them in different places.

The target in one test is T1, cardial β-receptors (Felis catus, UniProt Q9TST6).
T1 construct: from tissue; host or cells: heart in situ of anesthetized, reserpinized, vagotomized cat (in vivo, heart rate)
Kind of test: Block of isoprenaline, heart rate (HR), reserpinized anesthetized cat. The settings on record: iv, read-out: Block of isopren ED50 HR. In kind it is in vivo. As for the experimental part:
(§1) The β-receptor blocking agents of the present invention were tested as regards their biological properties. All compounds were thereby tested in anesthetized cats (males and females weighing 2.5-3.5 kg) pretreated with reserpine (5 mg/kg body weight administered intra musculary) about 16 hours before the experiments. The animals were pretreated with reserpine in order to eliminate the endogenous sympathetic control of heart rate and vascular smooth muscle tone. The cats were anaesthetized with pentobarbital (30 mg/kg body weight administered i.p.) and artifically ventilated with room air. A bilateral vagotomy was performed in the neck. Blood pressure was obtained from a cannulated carotid artery and heart rate was registered from a cardiotachometer, triggered by the electrocardiogram. (ECG) Intrinsic beta-mimetic activity on the heart was seen as increased heart rate after drug administration. The test compounds were given intravenously in logarithmically increasing doses. The values obtained were plotted on dose-response curves, from which affinity values (ED50) were estimated. At the end of each experiment high doses of isoprenaline were given in order to obtain the maximal heart rate response.

The target of the next test is T2, vascular β-receptors (Felis catus, UniProt Q9TST5).
T2 construct: from tissue; host or cells: vascular smooth muscle in situ of anesthetized, reserpinized cat (in vivo, isoprenaline vasodilation)
T2 sequence (Q9TST5 whole entry): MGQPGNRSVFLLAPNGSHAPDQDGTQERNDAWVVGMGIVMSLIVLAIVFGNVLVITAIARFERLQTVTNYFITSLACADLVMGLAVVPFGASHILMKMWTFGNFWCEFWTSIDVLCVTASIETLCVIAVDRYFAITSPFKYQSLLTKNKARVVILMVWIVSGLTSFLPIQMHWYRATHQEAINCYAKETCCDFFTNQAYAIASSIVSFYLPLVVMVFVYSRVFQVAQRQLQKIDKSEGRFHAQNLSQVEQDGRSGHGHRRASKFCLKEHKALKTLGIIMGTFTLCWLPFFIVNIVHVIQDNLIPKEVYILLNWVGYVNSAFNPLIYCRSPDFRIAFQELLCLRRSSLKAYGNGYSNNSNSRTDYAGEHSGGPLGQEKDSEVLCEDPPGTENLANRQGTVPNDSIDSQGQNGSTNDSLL
As to the kind of experiment: Block of isoprenaline, PR (vascular), reserpinized anesthetized cat. In kind it is in vivo. Conditions: iv, read-out: Block of isopren ED50 PR. As for the experimental part: as §1

In another test the test system is heart. Kind of test: Intrinsic β-mimetic activity on the heart (increased heart rate), reserpinized cat. The settings on record: i.v. In kind it is in vivo. As for the experimental part:
as §1

A short description of test [1]: Effect on arterial blood pressure in conscious dogs. In kind it is in vivo, Beagle dogs. Conditions: conscious dog, after 1.5 mg/kg i.v.; for ΔBP Supino: supine. How it is done: The compounds were also tested on conscious dogs. Beagle dogs were trained to be lying quietly and to be lifted to an erect position by placing their forelegs on a table for 2 minutes. Arterial blood pressure was registered via a blood pressure transducer attached to the dog at the heart level. Heart rate was triggered from the ECG. All dogs were pretreated with methylscopolamine to avoid vagal influences. Recordings were taken before and 15 and 75 min after administration of the test compound, first in supine position for 2 min and then in the erect position for 2 minutes. The test compounds were given in increasing doses with 2 hours intervals.

[2] abbreviates: reserpinized cat, i.v., heart rate.

T1 sequence (Q9TST6 whole entry): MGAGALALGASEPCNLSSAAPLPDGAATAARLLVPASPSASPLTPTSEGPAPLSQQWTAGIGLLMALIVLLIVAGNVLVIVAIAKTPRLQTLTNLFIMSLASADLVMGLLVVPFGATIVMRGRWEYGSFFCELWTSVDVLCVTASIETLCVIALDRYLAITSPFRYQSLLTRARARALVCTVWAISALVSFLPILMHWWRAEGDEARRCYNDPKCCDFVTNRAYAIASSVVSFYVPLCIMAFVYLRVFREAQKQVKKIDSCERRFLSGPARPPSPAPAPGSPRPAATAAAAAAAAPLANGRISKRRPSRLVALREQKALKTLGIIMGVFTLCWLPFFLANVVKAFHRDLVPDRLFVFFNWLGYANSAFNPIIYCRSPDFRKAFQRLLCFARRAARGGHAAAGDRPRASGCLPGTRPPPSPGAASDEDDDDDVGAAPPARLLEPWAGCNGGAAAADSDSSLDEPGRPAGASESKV

For the molecule `COCCc1ccc(OCC(O)CNCCOc2ccc(C(N)=O)cc2)cc1` (stereo not drawn) [Ex 3, 1-[2-(4-carbamylphenoxy)ethylamino]-3-(2-methoxyethyl)phenoxypropanol-2], the median effective dose (ED50) at cardial β-receptors (setting [2]) stood at 1.1 mg/kg; at vascular β-receptors (reserpinized cat, i.v., PR), 8.5 mg/kg. The Intrinsic activity in the test on heart came out at 0 beats/min.
With `C=CCc1ccccc1OCC(O)CNCCOc1ccc(C(N)=O)cc1` (stereo not drawn) [Ex 1, 1[2-(4-carbamylphenoxy)-ethylamino]-3-(2-allylphenoxy)propanol-2], the ED50 at cardial β-receptors (setting [2]) is 0.3 mg/kg. At vascular β-receptors (reserpinized cat, i.v., PR), the ED50 worked out at 1.8 mg/kg. In addition, the Intrinsic activity with heart was found to be 0 beats/min. For the same molecule, in test [1], the “ΔBP Erect” value is listed as -45 mm Hg and the “ΔBP Supino” value is listed as -28 mm Hg.
Taken in the same sequence, the figures for `C=CCc1ccccc1OCC(O)CNC(C)COc1ccc(C(N)=O)cc1` (stereo not drawn) [Ex 5, 1-[1-methyl-2-(4-carbamylphenoxy)ethylamino]-3-(2-allylphenoxy)propanol-2] were 0.05 mg/kg, 0.2 mg/kg, “+15 beats/min”, -42 mm Hg and -43 mm Hg.
For the molecule `NC(=O)c1ccc(OCCNCC(O)COc2ccccc2OCC(=O)NCCO)cc1` (stereo not drawn) [Ex 20, 1-[2-(4-carbamylphenoxy)ethylamino]-3-[2-(ω-hydroxyethylaminocarbonylmethoxy)phenoxy]-propanol-2], the median effective dose (ED50) on cardial β-receptors (setting [2]) is 0.03 mg/kg; at vascular β-receptors (reserpinized cat, i.v., PR), < 8.5 mg/kg.
`CC(C)NCC(O)COc1cccc2ccccc12` (stereo not drawn) [Propranolol, 1-isopropylamino-3-(1-naphtoxy)-propanol-2, reference compound] gave an Intrinsic activity in the test with heart of 0 beats/min. Further, in test [1], the “ΔBP Erect” value is given as 0 mm Hg and the “ΔBP Supino” value was “+5 mm Hg”.
For `Cc1ccc(Cl)c(OCC(O)CNCCOc2ccc(C(N)=O)cc2)c1` (stereo not drawn) [Ex 2, 1-[2-(4-carbamylphenoxy)ethylamino]-3-(2-chloro-5-methylphenoxy)propanol-2], the median effective dose (ED50) on cardial β-receptors (setting [2]) came to 0.3 mg/kg; on vascular β-receptors (reserpinized cat, i.v., PR), 4.6 mg/kg. The molecule also displayed an Intrinsic activity in the test on heart of 0 beats/min.
For `C#CCOc1ccccc1OCC(O)CNCCOc1ccc(C(N)=O)cc1` (stereo not drawn) [Ex 18] the same measures were 0.04 mg/kg, 0.3 mg/kg and “+13 beats/min”.
Taken in the same sequence, the figures for `CC(=O)Nc1ccc(OCC(O)CNC(C)C)cc1` (stereo not drawn) [Practolol, 4-(2-hydroxy-3-isopropylaminopropoxy)acetanilide, reference compound] were 0.3 mg/kg, 35 mg/kg and “+15 beats/min”.
For `COC(=O)NCCc1ccc(OCCNCC(O)COc2ccccc2C)cc1` (stereo not drawn) [Ex 9, 1-[4-(2-(2-methoxycarbonylamino)ethyl)phenoxyethylamino]-3-(2-methylphenoxy)-propanol-2] the same measures were 0.3 mg/kg, 2.4 mg/kg and “+40 beats/min”.
For `NC(=O)c1ccc(OCCNCC(O)COc2ccccc2Cl)cc1` (stereo not drawn) [Ex 11, 1-[2-(4-carbamoylphenoxy)ethylamino]-3-(2-chlorophenoxy)propanol-2], the 50% effective dose (ED50) on cardial β-receptors (setting [2]) is 0.05 mg/kg; at vascular β-receptors (reserpinized cat, i.v., PR), 1 mg/kg. In addition, in the test on heart, the Intrinsic activity result is on record as “+16 beats/min”. Besides, in test [1], the “ΔBP Erect” value is reported as -20 mm Hg. Further, in test [1], the “ΔBP Supino” value is -28 mm Hg.
Taken in the same sequence, the figures for `C=CCOc1ccccc1OCC(O)CNCCOc1ccc(C(N)=O)cc1` (stereo not drawn) [Ex 17] were 0.1 mg/kg, 1.5 mg/kg, “+8 beats/min”, -46 mm Hg and -23 mm Hg.
For the molecule `C=CCc1ccccc1OCC(O)CNC(C)COc1ccccc1C` (stereo not drawn) [Ex 6, 1-[1-methyl-2-(2-methylphenoxy)-ethylamino]-3-(2-allylphenoxy)propanol-2], the median effective dose (ED50) came out at 0.5 mg/kg on cardial β-receptors (setting [2]) and 0.5 mg/kg on vascular β-receptors (reserpinized cat, i.v., PR). In addition, the Intrinsic activity entry in the test with heart is reported as “+24 beats/min”.
Turning to `COCCc1ccc(OCC(O)CNC(C)C)cc1` (stereo not drawn) [Metroprolol, 1-isopropylamino-3-[4-(2-methoxyethyl)phenoxy]-propanol-2, reference compound], the ED50 on cardial β-receptors (cat) was 0.2 mg/kg. The median effective dose (ED50) on vascular β-receptors (cat) amounted to 4.7 mg/kg. This molecule yielded an Intrinsic activity with heart of 0 beats/min. In test [1], the “ΔBP Erect” value is reported as -3 mm Hg and the “ΔBP Supino” value was -5 mm Hg.
Regarding `NC(=O)Cc1ccccc1OCC(O)CNCCOc1ccc(C(N)=O)cc1` (stereo not drawn) [Ex 19], the ED50 is 1.7 mg/kg on cardial β-receptors (setting [2]) and < 8.5 mg/kg at vascular β-receptors (reserpinized cat, i.v., PR). The Intrinsic activity in the test on heart was 0 beats/min.
